Data as given in patent US5569591A, “Analytical or monitoring apparatus and method” (priority 1990, dated 1996).

Assays:
[1] = biological target: T1, H+-ATPase in the plasma membrane of Saccharomyces cerevisiae (Saccharomyces cerevisiae, UniProt P05030); assay type: cell-based; set-up: endogenous in cells; host or cells: intact S. cerevisiae cells in suspension
Experimental: The spectrometer 10 comprises two electrochemical cells 11, 12. Cell 11 is a test cell containing a sample of the biological system whose nonlinear dielectric properties are being studied. In this example the biological system comprises a system comprising a suspension of S. cerevisiae. The cell concentration was approximately 50 mg dry wt. ml^-1 in a medium of 20 mM KH2 PO4, 30 mM KCl, 1 mM MgCl2 pH 6.5. Tests were carried out within four hours of preparing the suspension. Cell 12 is a reference cell comprising the supernatant of the test suspension, the conductivity of which was adjusted with distilled water to compensate for the volume fraction of cells present in the sample, to be identical to that of the sample at the frequency of interest. The cells 11, 12 were connected to a sinusoidal oscillator 13, via a Data Translation Analog to Digital converter, to an 80386 microcomputer 14.
The sample cell suspension was pipetted into the electrode cell 11 (FIG. 1), the test waveform applied to the (outer) current electrodes, and the data logged from the (inner) voltage electrodes at a sampling frequency (which was typically at 25 times the frequency of the fundamental) and for a time specified by the operator. Time was specified in terms of a number of blocks, each block consisting of 512 samples. At the end of the time specified, the data were Fourier transformed as follows. […]

[2] = biological target: vanadate-resistant ATPase of a mutant strain of yeast (Saccharomyces cerevisiae, UniProt P05030); details: mutant strain with vanadate-resistant ATPase
vanadate-resistant ATPase of a mutant strain of yeast, sequence (P05030 whole entry, change not shown): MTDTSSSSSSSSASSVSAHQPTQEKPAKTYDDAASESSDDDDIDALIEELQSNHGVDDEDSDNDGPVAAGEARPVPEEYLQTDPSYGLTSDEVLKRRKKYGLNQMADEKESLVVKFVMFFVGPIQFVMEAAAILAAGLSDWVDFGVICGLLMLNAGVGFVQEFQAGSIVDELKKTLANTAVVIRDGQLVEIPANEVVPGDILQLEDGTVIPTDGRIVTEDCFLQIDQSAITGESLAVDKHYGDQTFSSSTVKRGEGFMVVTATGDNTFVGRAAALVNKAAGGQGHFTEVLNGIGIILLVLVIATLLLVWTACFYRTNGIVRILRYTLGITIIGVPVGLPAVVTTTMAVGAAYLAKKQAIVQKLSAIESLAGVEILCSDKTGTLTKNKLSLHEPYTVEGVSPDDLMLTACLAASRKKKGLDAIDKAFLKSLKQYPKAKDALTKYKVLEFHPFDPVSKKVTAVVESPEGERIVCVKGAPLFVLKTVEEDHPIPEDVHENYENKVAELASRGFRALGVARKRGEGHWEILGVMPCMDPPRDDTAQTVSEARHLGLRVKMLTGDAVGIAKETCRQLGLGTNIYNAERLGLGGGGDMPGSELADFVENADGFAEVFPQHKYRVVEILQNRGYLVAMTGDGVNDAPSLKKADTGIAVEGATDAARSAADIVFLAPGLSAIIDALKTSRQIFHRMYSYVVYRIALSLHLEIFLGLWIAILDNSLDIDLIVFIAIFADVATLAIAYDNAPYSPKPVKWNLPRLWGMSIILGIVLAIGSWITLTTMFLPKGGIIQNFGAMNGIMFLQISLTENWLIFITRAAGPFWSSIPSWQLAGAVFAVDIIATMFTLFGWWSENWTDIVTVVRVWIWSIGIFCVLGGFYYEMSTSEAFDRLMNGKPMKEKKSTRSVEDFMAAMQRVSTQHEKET

[3] = biological target: T1, H+-ATPase in the plasma membrane of Saccharomyces cerevisiae; details: cells metabolising added D-glucose
Experimental: As described above, a 3rd harmonic was reproducibly observed with resting cell suspensions of S. cerevisiae. This could be ascribed to the presence of the H^+ -ATPase in this organism, and should be expected to reflect a situation in which the enzyme was at static head. An experiment to determine how this behaviour might be modified when the enzyme was driven away from static head and was able (or expected) to do work was carried out. Resting cells were taken, their (usual) non-linear dielectric spectrum recorded, and a metabolisable carbon source (D-glucose) added.

T1 sequence (P05030 whole entry): as the sequence (P05030 whole entry, change not shown) above

Row | Compound | generation of harmonics ([1]; 0.2 pmol/mg dry wt of cells) | generation of harmonics in the presence of vanadate [2] | even (2nd and 4th) harmonics in the presence of vanadate [3] | generation of the 3rd harmonic ([1]; 1 mM sodium metavanadate, FIG. 12)
1 | C(=NC(c1ccccc1)c1ccccc1)=NC(c1ccccc1)c1ccccc1 [dibenzhydryl carbodiimide] | completely abolished |  |  | 
2 | sodium metavanadate |  | vanadate resistant | vanadate-sensitive | essentially completely abolished
